Results reported in US11001850B2, “Constructs and methods for biosynthesis of cyclopamine” (priority 2014, dated 2021).

Columns and labels:
Type in all cases: biochemical, Veratrum californicum
[1] = system: CYP90B27 (cholesterol 22-hydroxylase); test: Substrate testing of CYP90B27 (cholesterol 22-hydroxylase) co-expressed with CPR in Sf9 cells; design: key to Production of a detectable product (substrate testing), CYP90B27: Production of a detectable product is indicated by a (+); conditions: for Production of a detectable product (substrate testing), CYP90B27: 7.5 μM substrate, crude Sf9 cell suspension with CPR, 1.25 mM NADPH, 30° C. for 2 hours, GC-MS or LC-MS/MS; for Hydroxylation of substrate by cholesterol 22-hydroxylase (VC2646), in words: Sf9 cells with CPR, GC-MS
Procedure: Compounds were prepared to 1 mM stock solutions of 100% DMSO and diluted with H2O.
(§1) Standards were obtained from Sigma Aldrich, Research Plus, and Avanti. For GC-MS analysis, 5 individual assays per substrate were pooled after incubation at 30° C. for 2 hours; one assay produced sufficient product for analysis by LC-MS/MS. Assay conditions were as follows: 80 μl S. frugiperda Sf9 cell suspension (obtained by re-suspension of 50 ml viral infected culture pellet in 3.5 ml of 100 mM tricine pH 7.4/5 mM thioglycolic acid), 60 mM potassium phosphate buffer pH 8, 1.25 mM NADPH, 7.5 μM substrate, and H2O in a total volume of 200 μl. Controls were performed with no enzyme and S. frugiperda Sf9 cells expressing an unrelated cytochrome P450, or CPR-only, for each assay.

[2] = system: CYP94N1 (22-hydroxycholesterol 26-hydroxylase/oxidase); test: Substrate testing of CYP94N1 (22-hydroxycholesterol 26-hydroxylase/oxidase) co-expressed with CPR in Sf9 cells; design: key to Production of a detectable product (substrate testing), CYP94N1: Production of a detectable product is indicated by a (+); conditions: for Hydroxylation of substrate by VC12709 (22-hydroxycholesterol 26-hydroxylase/oxidase), in words: Sf9 cells with CPR, GC-MS
Procedure: (§2) Each cytochrome P450 co-expressed with CPR in S. frugiperda Sf9 cells was subjected to individual enzyme assays with the compounds found in Table 6 to determine functionality. Compounds were prepared to 1 mM stock solutions of 100% DMSO and diluted with H2O.
as §1
Assay for GC-MS: Cytochrome P450 enzyme assay conditions were identical to those stated above using S. frugiperda Sf9 cell suspensions with the following modifications. First, 12 assays each containing 22-hydroxy-26-aminocholesterol 22-oxidase+CPR, 22-hydroxycholesterol 26-hydroxylase/oxidase+CPR, or control cytochrome P450+CPR and each with pure 22(R)-hydroxycholesterol were allowed to incubate overnight at 30° C. Like assays were pooled, extracted 3 times with 2 volumes ethyl acetate, dried under N2, and re-suspended in 180 μl of 25% DMSO. Extracts containing the enzymatic product of the 22-hydroxycholesterol 26-hydroxylase/oxidase+CPR and 22(R)-hydroxycholesterol were divided equally and used as substrate for 22-hydroxy-26-aminocholesterol 22-oxidase+CPR and control cytochrome P450+CPR. Extracts containing the enzymatic product of 22-hydroxy-26-aminocholesterol 22-oxidase+CPR and 22(R)-hydroxycholesterol were divided and used as substrate in 6 assays containing 22-hydroxycholesterol 26-hydroxylase/oxidase+CPR and 6 assays containing control cytochrome P450+CPR. Control P450+CPR assay was run in parallel, treated identically and added to another control P450 assay. Refer to FIG. 1A for an overview of the experiment. Assays were allowed to incubate for 20 min at 30° C. then stopped by addition of 20 μl of 20% TCA with vortexing. Like assays were pooled, extracted, derivatized, and analyzed by GC-MS using the method stated above.

[3] = system: CYP90G1 (22-hydroxy-26-aminocholesterol 22-oxidase); test: Substrate testing of CYP90G1 (22-hydroxy-26-aminocholesterol 22-oxidase) co-expressed with CPR in Sf9 cells; design: key to Production of a detectable product (substrate testing), CYP90G1: Production of a detectable product is indicated by a (+); conditions: for Oxidation of the 22-hydroxy position of substrate by VC13284 (22-hydroxy-26-aminocholesterol 22-oxidase), in words: Sf9 cells with CPR, GC-MS / LC-MS/MS; for Production of a detectable product (substrate testing), CYP90G1: 7.5 μM substrate, crude Sf9 cell suspension with CPR, 1.25 mM NADPH, 30° C. for 2 hours, GC-MS or LC-MS/MS
Procedure: as §2, §1

Compound	Production of a detectable product (substrate testing), CYP90B27 [1]	Hydroxylation of substrate by cholesterol 22-hydroxylase (VC2646), in words [1]	Hydroxylation of substrate by VC12709 (22-hydroxycholesterol 26-hydroxylase/oxidase), in words [2]	Oxidation of the 22-hydroxy position of substrate by VC13284 (22-hydroxy-26-aminocholesterol 22-oxidase), in words [3]	Production of a detectable product (substrate testing), CYP94N1 ([2]; 7.5 μM substrate, crude Sf9 cell suspension with CPR, 1.25 mM NADPH, 30° C. for 2 hours, GC-MS or LC-MS/MS)	Production of a detectable product (substrate testing), CYP90G1 [3]
CC(C)CCC[C@@H](C)[C@H]1CC[C@H]2[C@@H]3CC=C4C[C@@H](O)CC[C@]4(C)[C@H]3CC[C@]12C [cholesterol]	+	added a hydroxyl group to the 22-position	not detected	–	–	–
CC(CN)CCC(O)[C@@H](C)[C@H]1CC[C@H]2[C@@H]3CC=C4C[C@@H](O)CC[C@]4(C)[C@H]3CC[C@]12C (stereo partly shown) [22-hydroxy-26-aminocholesterol]	–	–	–	oxidizes the 22-hydroxy position	–	–
C[C@@H](CO)CCC[C@@H](C)[C@H]1CC[C@H]2[C@@H]3CC=C4C[C@@H](O)CC[C@]4(C)[C@H]3CC[C@]12C [26-hydroxycholesterol]	+	hydroxylated	–	–	–	–
CC(C)CC[C@@H](O)[C@@H](C)[C@H]1CC[C@H]2[C@@H]3CC=C4C[C@@H](O)CC[C@]4(C)[C@H]3CC[C@]12C [22(R)-hydroxycholesterol]	+	–	found to hydroxylate	oxidizes the 22-hydroxy position	+	+
CC(C)CCC[C@@H](C)[C@H]1CC[C@H]2[C@@H]3[C@@H](O)C=C4C[C@@H](O)CC[C@]4(C)[C@H]3CC[C@]12C [7β-hydroxycholesterol]	+	hydroxylated	–	–	–	–
CC(C)CCC(=O)[C@@H](C)[C@H]1CC[C@H]2[C@@H]3CC=C4C[C@@H](O)CC[C@]4(C)[C@H]3CC[C@]12C [22-keto-cholesterol]	–	–	unable to hydroxylate	–	–	–
CC(CO)CCC(O)[C@@H](C)[C@H]1CC[C@H]2[C@@H]3CC=C4C[C@@H](O)CC[C@]4(C)[C@H]3CC[C@]12C (stereo partly shown) [22,26-dihydroxycholesterol]	–	–	–	oxidizes the 22-hydroxy position	–	+
